This passage reports Ratio, LD90 and LD50 results from ChEMBL document CHEMBL3046781, “Resistance of Helicoverpa assulta (Guenée) (Lepidoptera: Noctuidae) to fenvalerate, phoxim and methomyl in China” (2009).

What all share (type): functional
For assay [1], the system named is Helicoverpa assulta. Description: Resistance factor, ratio of LD50 for sixth-instar larvae of Helicoverpa assulta HB1 to LD50 for sixth-instar larvae of Helicoverpa assulta at 1.8 to 183360 mg/l.
Assay [2] concerns Helicoverpa assulta. Nature of the assay: Resistance factor, ratio of LD50 for sixth-instar larvae of Helicoverpa assulta HN2 to LD50 for sixth-instar larvae of Helicoverpa assulta at 1.8 to 183360 mg/l.
In assay [3] the test system is Helicoverpa assulta. Nature of the assay: Resistance factor, ratio of LD50 for sixth-instar larvae of Helicoverpa assulta FJ2 to LD50 for sixth-instar larvae of Helicoverpa assulta at 1.8 to 183360 mg/l.
Assay [4] deals with Helicoverpa assulta. Nature of the assay: Resistance factor, ratio of LD50 for sixth-instar larvae of Helicoverpa assulta HN1 to LD50 for sixth-instar larvae of Helicoverpa assulta at 1.8 to 183360 mg/l.
Assay [5] relates to Helicoverpa assulta. Nature of the assay: Resistance factor, ratio of LD50 for sixth-instar larvae of Helicoverpa assulta AH2 to LD50 for sixth-instar larvae of Helicoverpa assulta at 1.8 to 183360 mg/l.
Assay [6] deals with Helicoverpa assulta. Nature of the assay: Resistance factor, ratio of LD50 for sixth-instar larvae of Helicoverpa assulta YN3 to LD50 for sixth-instar larvae of Helicoverpa assulta at 1.8 to 183360 mg/l.
The test system of assay [7] is Helicoverpa assulta. Nature of the assay: Resistance factor, ratio of LD50 for sixth-instar larvae of Helicoverpa assulta YN6 to LD50 for sixth-instar larvae of Helicoverpa assulta at 1.8 to 183360 mg/l.
Assay [8] relates to Helicoverpa assulta. Nature of the assay: Resistance factor, ratio of LD50 for sixth-instar larvae of Helicoverpa assulta YN8 to LD50 for sixth-instar larvae of Helicoverpa assulta at 1.8 to 183360 mg/l.
Assay [9] has as its system Helicoverpa assulta. Nature of the assay: Insecticidal activity against sixth-instar larvae of Helicoverpa assulta SD1 at 1.8 to 183360 mg/l after 48 hr by chi-squared analysis.
Assay [10] has as its system Helicoverpa assulta. Nature of the assay: Insecticidal activity against sixth-instar larvae of Helicoverpa assulta FJ1 at 1.8 to 183360 mg/l after 48 hr by chi-squared analysis.
Assay [11] concerns Helicoverpa assulta. Nature of the assay: Insecticidal activity against sixth-instar larvae of Helicoverpa assulta AH3 at 1.8 to 183360 mg/l after 48 hr by chi-squared analysis.
Assay [12] concerns Helicoverpa assulta. Nature of the assay: Insecticidal activity against sixth-instar larvae of Helicoverpa assulta GZ1 at 1.8 to 183360 mg/l after 48 hr by chi-squared analysis.
Assay [13] relates to Helicoverpa assulta. Description: Insecticidal activity against sixth-instar larvae of Helicoverpa assulta YN4 at 1.8 to 183360 mg/l after 48 hr by chi-squared analysis.
In assay [14] the test system is Helicoverpa assulta. Nature of the assay: Insecticidal activity against sixth-instar larvae of Helicoverpa assulta YN8 at 1.8 to 183360 mg/l after 48 hr by chi-squared analysis.
Assay [15] relates to Helicoverpa assulta. Nature of the assay: Insecticidal activity against sixth-instar larvae of Helicoverpa assulta HN1 at 1.8 to 183360 mg/l after 48 hr by chi-squared analysis.
Assay [16] concerns Helicoverpa assulta. Nature of the assay: Insecticidal activity against sixth-instar larvae of Helicoverpa assulta GZ5 at 1.8 to 183360 mg/l after 48 hr by chi-squared analysis.
Assay [17] has as its system Helicoverpa assulta. Nature of the assay: Resistance factor, ratio of LD50 for sixth-instar larvae of Helicoverpa assulta GZ1 to LD50 for sixth-instar larvae of Helicoverpa assulta at 21 to 3390 mg/l.
For assay [18], the system named is Helicoverpa assulta. Description: Insecticidal activity against sixth-instar larvae of Helicoverpa assulta GZ4 at 21 to 3390 mg/l after 48 hr by chi-squared analysis.
The test system of assay [19] is Helicoverpa assulta. Nature of the assay: Resistance factor, ratio of LD50 for sixth-instar larvae of Helicoverpa assulta AH2 to LD50 for sixth-instar larvae of Helicoverpa assulta at 21 to 3390 mg/l.
In assay [20] the test system is Helicoverpa assulta. Nature of the assay: Resistance factor, ratio of LD50 for sixth-instar larvae of Helicoverpa assulta GZ5 to LD50 for sixth-instar larvae of Helicoverpa assulta at 21 to 3390 mg/l.
Assay [21] concerns Helicoverpa assulta. Description: Resistance factor, ratio of LD50 for sixth-instar larvae of Helicoverpa assulta GZ2 to LD50 for sixth-instar larvae of Helicoverpa assulta at 21 to 3390 mg/l.
The test system of assay [22] is Helicoverpa assulta. Description: Resistance factor, ratio of LD50 for sixth-instar larvae of Helicoverpa assulta YN6 to LD50 for sixth-instar larvae of Helicoverpa assulta at 21 to 3390 mg/l.
The subject of assay [23] is Helicoverpa assulta. Description: Resistance factor, ratio of LD50 for sixth-instar larvae of Helicoverpa assulta YN5 to LD50 for sixth-instar larvae of Helicoverpa assulta at 21 to 3390 mg/l.
For assay [24], the system named is Helicoverpa assulta. Description: Insecticidal activity against sixth-instar larvae of Helicoverpa assulta YN3 at 21 to 3390 mg/l after 48 hr by chi-squared analysis.
Assay [25] concerns Helicoverpa assulta. Description: Insecticidal activity against sixth-instar larvae of Helicoverpa assulta AH2 at 21 to 3390 mg/l after 48 hr by chi-squared analysis.
Assay [26] has as its system Helicoverpa assulta. Description: Resistance factor, ratio of LD50 for sixth-instar larvae of Helicoverpa assulta GZ3 to LD50 for sixth-instar larvae of Helicoverpa assulta at 39 to 12630 mg/l.
The subject of assay [27] is Helicoverpa assulta. Description: Resistance factor, ratio of LD50 for sixth-instar larvae of Helicoverpa assulta GZ4 to LD50 for sixth-instar larvae of Helicoverpa assulta at 39 to 12630 mg/l.
Assay [28] concerns Helicoverpa assulta. Nature of the assay: Resistance factor, ratio of LD50 for sixth-instar larvae of Helicoverpa assulta SD2 to LD50 for sixth-instar larvae of Helicoverpa assulta at 39 to 12630 mg/l.
Assay [29] deals with Helicoverpa assulta. Nature of the assay: Resistance factor, ratio of LD50 for sixth-instar larvae of Helicoverpa assulta HB2 to LD50 for sixth-instar larvae of Helicoverpa assulta at 39 to 12630 mg/l.
Assay [30] concerns Helicoverpa assulta. Nature of the assay: Resistance factor, ratio of LD50 for sixth-instar larvae of Helicoverpa assulta HB1 to LD50 for sixth-instar larvae of Helicoverpa assulta at 39 to 12630 mg/l.
The subject of assay [31] is Helicoverpa assulta. Description: Resistance factor, ratio of LD50 for sixth-instar larvae of Helicoverpa assulta AH1 to LD50 for sixth-instar larvae of Helicoverpa assulta at 39 to 12630 mg/l.
In assay [32] the test system is Helicoverpa assulta. Description: Insecticidal activity against sixth-instar larvae of Helicoverpa assulta GZ4 at 39 to 12630 mg/l after 48 hr by chi-squared analysis.
The test system of assay [33] is Helicoverpa assulta. Nature of the assay: Insecticidal activity against sixth-instar larvae of Helicoverpa assulta SD1 at 39 to 12630 mg/l after 48 hr by chi-squared analysis.
For assay [34], the system named is Helicoverpa assulta. Nature of the assay: Resistance factor, ratio of LD50 for sixth-instar larvae of Helicoverpa assulta YN2 to LD50 for sixth-instar larvae of Helicoverpa assulta at 39 to 12630 mg/l.
Assay [35] deals with Helicoverpa assulta. Description: Resistance factor, ratio of LD50 for sixth-instar larvae of Helicoverpa assulta FJ2 to LD50 for sixth-instar larvae of Helicoverpa assulta at 39 to 12630 mg/l.

`CC(C)C(C(=O)OC(C#N)c1cccc(Oc2ccccc2)c1)c1ccc(Cl)cc1` (stereo not drawn) [FENVALERATE]: the Ratio in assay [1] is reported as 5.83; in assay [2], 7.23; in [3] it was 12.9; in [4] it was 64.9; in [5], 415; in assay [6], 1403. Besides, the Ratio stood at 4115 in assay [7] and 17622 in assay [8]. For the same compound, the LD90 in assay [9] was 14.8 µg/g; in assay [10], 5.67 µg/g; in assay [11], 470 µg/g; in assay [12], 1043 µg/g; in [13] it was 4847 µg/g; in assay [14], 9100 µg/g. In addition, the LD90 in [15] stood at 23.1 µg/g; in assay [16], 74.2 µg/g. In addition, the LD50 came to 1.59 mg/kg in assay [9] (Helicoverpa assulta, SD1, 48 h); 1.46 mg/kg in assay [10] (Helicoverpa assulta, FJ1, 48 h); 251 mg/kg in assay [11] (Helicoverpa assulta, AH3, 48 h); 301 mg/kg in assay [12] (Helicoverpa assulta, GZ1, 48 h); 1500 mg/kg in [13] (Helicoverpa assulta, YN4, 48 h); 2860 mg/kg in assay [14] (Helicoverpa assulta, YN8, 48 h). Moreover, the 50% lethal dose (LD50) in assay [15] (Helicoverpa assulta, HN1, 48 h) worked out at 10.5 mg/kg; in assay [16] (Helicoverpa assulta, GZ5, 48 h) it was 30.6 mg/kg.

With `CNC(=O)ON=C(C)SC` [METHOMYL], the Ratio in assay [17] is on record as 28.9; in [19], 15.3; in [20] it was 14.5; in assay [21], 13.9; in assay [22] it was 13.7; in assay [23], 9.87. Further, the figures for the LD90 in assay [18], in assay [24] and in assay [25] were 55.5 µg/g, 78.5 µg/g and 59.6 µg/g, respectively. For the same compound, the 50% lethal dose (LD50) in assay [18] (Helicoverpa assulta, GZ4, 48 h) was 16.7 mg/kg; in assay [24] (Helicoverpa assulta, YN3, 48 h) it was 33.3 mg/kg; in [25] (Helicoverpa assulta, AH2, 48 h) it was 22.1 mg/kg.

As for `CCOP(=S)(OCC)O/N=C(\C#N)c1ccccc1` [PHOXIM], the Ratio was 8.94 in assay [26]; 7.89 in [27]; 7.37 in assay [28]; 5.04 in assay [29]; 3.49 in assay [30]; 50.8 in assay [31]. The results for the Ratio in assay [34] and in assay [35] were 14.9 and 9.41, respectively. The LD90 worked out at 51.7 µg/g in assay [32] and 26.5 µg/g in [33]. Also, the 50% lethal dose (LD50) in [32] (Helicoverpa assulta, GZ4, 48 h) was determined as 18.4 mg/kg; in assay [33] (Helicoverpa assulta, SD1, 48 h), 11.9 mg/kg.

As a reminder, the LD50 is the dose expected to kill half of the subjects tested. Low readings indicate a more toxic substance, high ones a less toxic substance.
